# Legend:
# [1] = system: E. coli KL-16 (GSC strain 4245); experiment: In vitro antibacterial activity (MIC assay), broth microdilution; format: cell-based; conditions: Escherichia coli
# In short: (§1)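 Bacteria at roughly 5×10^5 CFU/mL final were grown 16–24 h at 35° C in wells holding 2-fold serial dilutions (11 points) of compound prepared in 100% DMSO, following NCCLS M7-A5. MIC, in μg/mL, is the concentration that stops visible growth relative to untreated wells.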
# S. aureus ATCC13709 = experiment: as above; format: cell-based; conditions: Staphylococcus aureus, ATCC13709; read-out: S. aureus ATCC13709 MIC
# In short: as §1
# S. pneumoniae ATCC49619 = experiment: as above; format: cell-based; conditions: Streptococcus pneumoniae, ATCC49619; read-out: S. pneumoniae ATCC49619 MIC
# In short: as §1
# E. coli DNA gyrase = molecular target: T1, E. coli DNA gyrase (Escherichia coli, UniProt P0AES4+P0AES6); experiment: DNA gyrase inhibition assay (supercoiling); format: biochemical; conditions: E. coli DNA gyrase supercoiling, visual inspection of gels; read-out: DNA Gyrase IC50 (converted)
# T1 construct: purchased John Innes Enterprises Ltd. (John Innes Centre, UK)
# In short: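 Agarose-gel (1.0%, ethidium-stained) readout of supercoiled versus relaxed pBR322 after 30 min at 37° C. Each reaction held 250 ng DNA, 0.2 unit enzyme, 1 mM ATP, 4 mM MgCl2, 24 mM KCl in 35 mM Tris-HCl pH 7.5, and compound at 0.5% DMSO final.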
# E. coli topoisomerase IV = molecular target: T2, E. coli topoisomerase IV (Escherichia coli, UniProt P0AFI2+P20083); experiment: Topoisomerase IV inhibition assay (relaxation); format: biochemical; conditions: E. coli topoisomerase IV relaxation, visual inspection of gels; read-out: Topoisomerase IV IC50 (converted)
# T2 construct: purchased John Innes Enterprises Ltd. (John Innes Centre, UK)
# Procedure: Inhibition of the relaxation activity of E. coli topoisomerase IV was determined using enzyme, buffers and substrates received from John Innes Enterprises Ltd. (John Innes Centre, UK). The reactions were performed according to the manufacturer's directions, with the following modifications.
# DNA relaxation reactions were carried out in a total reaction volume of 20 μL, containing 300 ng of supercoiled pBR322, 40 mM HEPES-KOH (pH 7.6), 100 mM potassium glutamate, 10 mM Mg(OAc)2, 10 mM DTT, 4 μg/mL tRNA, 2 mM ATP, and 50 μg/mL BSA. Compounds, diluted in 10% DMSO, were added to the reaction mixture to reach a final concentration of 0.5% DMSO. Enzyme was diluted to 0.45 unit/μL in a solution of 40 mM HEPES-KOH (pH 7.6), 150 mM potassium glutamate, 1 mM DTT, 1 mM EDTA, and 40% glycerol. Diluted enzyme (0.9 unit) was added to each reaction.
# The reactions were incubated at 37° C. for 45 min. The reactions were then cooled to 0° C. followed by addition of 3 μL of 40% glycerol, 100 mM Tris-HCl (pH 7.5), 50 mM EDTA, 0.5% SDS and 0.1% bromophenol blue. Samples were separated on 1.0% agarose gels. Gels were stained with Ethidium bromide and photographed with a Stratagene Eagle Eye II.
# T1 sequence (P0AES4 whole entry, one chain of several): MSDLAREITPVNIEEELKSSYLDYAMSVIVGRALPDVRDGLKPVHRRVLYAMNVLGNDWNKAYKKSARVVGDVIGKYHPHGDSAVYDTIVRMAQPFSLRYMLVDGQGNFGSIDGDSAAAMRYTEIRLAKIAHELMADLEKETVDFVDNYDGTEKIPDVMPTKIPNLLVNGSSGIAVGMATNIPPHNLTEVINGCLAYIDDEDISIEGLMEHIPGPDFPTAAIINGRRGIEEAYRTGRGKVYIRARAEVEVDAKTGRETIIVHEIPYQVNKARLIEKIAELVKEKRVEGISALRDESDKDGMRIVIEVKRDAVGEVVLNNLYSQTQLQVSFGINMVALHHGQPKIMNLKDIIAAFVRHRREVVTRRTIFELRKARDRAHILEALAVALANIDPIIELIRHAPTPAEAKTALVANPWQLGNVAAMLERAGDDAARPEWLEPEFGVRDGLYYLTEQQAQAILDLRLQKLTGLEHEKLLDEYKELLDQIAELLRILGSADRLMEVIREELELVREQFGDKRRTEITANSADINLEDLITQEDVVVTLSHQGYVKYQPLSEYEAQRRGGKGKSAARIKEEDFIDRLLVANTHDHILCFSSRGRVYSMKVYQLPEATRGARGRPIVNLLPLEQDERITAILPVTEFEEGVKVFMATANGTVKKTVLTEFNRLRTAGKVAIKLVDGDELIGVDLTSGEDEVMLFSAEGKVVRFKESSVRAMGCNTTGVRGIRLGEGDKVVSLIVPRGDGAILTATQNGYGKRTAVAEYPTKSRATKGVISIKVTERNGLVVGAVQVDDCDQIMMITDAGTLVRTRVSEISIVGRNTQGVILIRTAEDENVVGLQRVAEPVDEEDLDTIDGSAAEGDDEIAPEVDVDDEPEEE
# T2 sequence (P0AFI2 whole entry): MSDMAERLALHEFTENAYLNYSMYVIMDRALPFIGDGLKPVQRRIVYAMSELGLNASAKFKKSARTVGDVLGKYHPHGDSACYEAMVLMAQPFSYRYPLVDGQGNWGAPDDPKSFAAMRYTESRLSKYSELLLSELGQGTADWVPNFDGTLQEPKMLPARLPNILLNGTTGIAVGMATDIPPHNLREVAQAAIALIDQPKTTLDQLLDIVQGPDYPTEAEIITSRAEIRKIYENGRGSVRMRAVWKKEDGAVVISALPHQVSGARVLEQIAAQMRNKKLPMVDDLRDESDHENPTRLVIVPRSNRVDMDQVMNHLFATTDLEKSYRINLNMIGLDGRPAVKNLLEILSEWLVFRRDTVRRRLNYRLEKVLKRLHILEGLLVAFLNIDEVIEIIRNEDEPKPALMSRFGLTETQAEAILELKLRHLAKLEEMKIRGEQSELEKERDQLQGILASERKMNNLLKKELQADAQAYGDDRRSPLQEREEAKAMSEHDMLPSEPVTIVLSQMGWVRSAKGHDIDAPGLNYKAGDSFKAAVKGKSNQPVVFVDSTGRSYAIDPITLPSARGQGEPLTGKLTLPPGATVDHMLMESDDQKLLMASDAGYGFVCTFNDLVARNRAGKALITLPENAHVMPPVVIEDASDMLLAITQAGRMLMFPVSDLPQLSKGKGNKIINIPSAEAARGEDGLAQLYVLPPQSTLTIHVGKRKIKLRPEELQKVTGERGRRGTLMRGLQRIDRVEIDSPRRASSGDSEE
# T2 sequence (P20083 whole entry): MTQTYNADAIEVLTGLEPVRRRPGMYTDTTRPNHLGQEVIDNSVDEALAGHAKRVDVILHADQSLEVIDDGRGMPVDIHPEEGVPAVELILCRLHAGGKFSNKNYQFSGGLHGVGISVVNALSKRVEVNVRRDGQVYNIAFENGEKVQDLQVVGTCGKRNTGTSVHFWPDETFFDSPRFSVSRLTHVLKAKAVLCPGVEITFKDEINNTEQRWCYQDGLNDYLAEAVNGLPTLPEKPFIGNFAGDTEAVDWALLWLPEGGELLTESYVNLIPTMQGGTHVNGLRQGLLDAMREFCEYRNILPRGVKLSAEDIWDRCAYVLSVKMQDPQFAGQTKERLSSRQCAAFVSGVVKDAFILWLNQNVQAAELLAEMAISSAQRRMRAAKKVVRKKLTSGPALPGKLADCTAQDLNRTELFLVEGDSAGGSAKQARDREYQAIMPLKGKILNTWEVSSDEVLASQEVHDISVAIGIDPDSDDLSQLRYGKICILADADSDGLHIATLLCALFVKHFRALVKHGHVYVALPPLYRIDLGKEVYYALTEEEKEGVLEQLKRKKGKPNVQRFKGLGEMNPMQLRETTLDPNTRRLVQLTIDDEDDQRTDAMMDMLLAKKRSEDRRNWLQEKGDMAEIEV
SMILES,MIC [1] [µg/mL],MIC (S. aureus ATCC13709) [µg/mL],MIC (S. pneumoniae ATCC49619) [µg/mL],IC50 (E. coli DNA gyrase) [µM],IC50 (E. coli topoisomerase IV) [µM]
"COc1ccc2nccc(-n3cc4c(n3)CCC(NCc3ccc5c(n3)NC(=O)CO5)C4)c2c1 (stereo not shown) [Example 54, 6-{[2-(6-Methoxy-quinolin-4-yl)-4,5,6,7-tetrahydro-2H-indazol-5-ylamino]-methyl}-4H-pyrido[3,2-b][1,4]oxazin-3-one]",2,1,2,0.131,0.035
"COc1ccc2nccc(-n3cc4c(n3)CCC(NC(=O)C3(c5ccc(Cl)cc5)CCCC3)C4)c2c1 (stereo not shown) [Example 80, 1-(4-Chloro-phenyl)-cyclopentanecarboxylic acid [2-(6-methoxy-quinolin-4-yl)-4,5,6,7-tetrahydro-2H-indazol-5-yl]-amide]",> 128,8,128,> 31.9,> 2
"COc1ccc2nccc(-n3cc4c(n3)CCC(NCc3ccc5c(c3)OCO5)C4)c2n1 (stereo not shown) [Example 37, Benzo[1,3]dioxol-5-ylmethyl-[2-(6-methoxy-[1,5]naphthyridin-4-yl)-4,5,6,7-tetrahydro-2H-indazol-5-yl]-amine]",32,0.5,2,0.582,0.582
"COc1ccc2nccc(-n3cc4c(n3)CCC(NC(=O)c3ccc5c(c3)NC(=O)CO5)C4)c2n1 (stereo not shown) [Example 117, 3-Oxo-3,4-dihydro-2H-benzo[1,4]oxazine-6-carboxylic acid [2-(6-methoxy-[1,5]naphthyridin-4-yl)-4,5,6,7-tetrahydro-2H-indazol-5-yl]-amide]",4,0.125,8,2.13,0.531
"COc1ccc2nccc(-n3cc4c(n3)CCC(NCc3ccc5c(n3)NC(=O)CO5)C4)c2n1 (stereo not shown) [Example 44, 6-{[2-(6-Methoxy-[1,5]naphthyridin-4-yl)-4,5,6,7-tetrahydro-2H-indazol-5-ylamino]-methyl}-4H-pyrido[3,2-b][1,4]oxazin-3-one]",2,0.5,2,< 0.273,0.035
"COc1ccc2nccc(-n3cc4c(n3)CCC(NC(=O)c3cnc5ccccc5n3)C4)c2n1 (stereo not shown) [Example 70, Quinoxaline-2-carboxylic acid [2-(6-methoxy-[1,5]naphthyridin-4-yl)-4,5,6,7-tetrahydro-2H-indazol-5-yl]-amide]",> 128,2,32,> 70.9,> 2.21
"COc1ccc2nccc(-n3cc4c(n3)CCC(NC(=O)c3ccc5c(c3)OCCO5)C4)c2n1 (stereo not shown) [Example 1, 2,3-Dihydro-benzo[1,4]dioxine-6-carboxylic acid [2-(6-methoxy-[1,5]naphthyridin-4-yl)-4,5,6,7-tetrahydro-2H-indazol-5-yl]-amide]",> 128,0.5,8,> 69.9,> 2.19
"COc1ccc2nccc(-n3cc4c(n3)CCN(CC(=O)c3ccc5c(c3)NC(=O)CO5)C4)c2c1 [Example 64, 6-{2-[2-(6-Methoxy-quinolin-4-yl)-2,4,6,7-tetrahydro-pyrazolo[4,3-c]pyridin-5-yl]-acetyl}-4H-benzo[1,4]oxazin-3-one]",64,4,128,> 8.52,0.532
"COc1ccc2nccc(-n3cc4c(n3)CCC(NCc3ccc5c(c3)NCCS5)C4)c2n1 (stereo not shown) [Example 36, (3,4-Dihydro-2H-benzo[1,4]thiazin-6-ylmethyl)-[2-(6-methoxy-[1,5]naphthyridin-4-yl)-4,5,6,7-tetrahydro-2H-indazol-5-yl]-amine]",8,< 0.125,0.25,1.09,0.0654
"O=C1CSc2cc(F)c(C(=O)NC3CCc4nn(-c5cccc6cccnc56)cc4C3)cc2N1 (stereo not shown) [Example 32, 7-Fluoro-3-oxo-3,4-dihydro-2H-benzo[1,4]thiazine-6-carboxylic acid (2-quinolin-8-yl-4,5,6,7-tetrahydro-2H-indazol-5-yl)-amide]",16,0.25,4,–,0.264
"COc1ccc2nccc(-n3cc4c(n3)CCC(NCc3cc5c(cc3F)SCC(=O)N5)C4)c2c1 (stereo not shown) [Example 53, 7-Fluoro-6-{[2-(6-methoxy-quinolin-4-yl)-4,5,6,7-tetrahydro-2H-indazol-5-ylamino]-methyl}-4H-benzo[1,4]thiazin-3-one]",4,0.25,2,1.02,0.0327
"O=C1CSc2ccc(C(=O)NC3CCc4nn(-c5cccc6ccccc56)cc4C3)cc2N1 (stereo not shown) [Example 34, 3-Oxo-3,4-dihydro-2H-benzo[1,4]thiazine-6-carboxylic acid (2-naphthalen-1-yl-4,5,6,7-tetrahydro-2H-indazol-5-yl)-amide]",> 128,0.5,8,4.4,0.275
"O=C1CSc2ccc(C(=O)NC3CCc4nn(-c5ccnc6cc(Cl)ccc56)cc4C3)cc2N1 (stereo not shown) [Example 81, 3-Oxo-3,4-dihydro-2H-benzo[1,4]thiazine-6-carboxylic acid [2-(7-chloro-quinolin-4-yl)-4,5,6,7-tetrahydro-2H-indazol-5-yl]-amide]",> 128,2,> 128,–,> 1.02
"COc1ccc2nccc(-n3cc4c(n3)CCC(NC(=O)/C=C/c3ccc(F)cc3)C4)c2n1 (stereo not shown) [Example 13, 3-(4-Fluoro-phenyl)-N-[2-(6-methoxy-[1,5]naphthyridin-4-yl)-4,5,6,7-tetrahydro-2H-indazol-5-yl]-acrylamide]",> 128,0.5,8,> 36.1,–
"COc1ccc2nccc(-n3cc4c(n3)CCC(NC(=O)c3cc5ccccc5s3)C4)c2c1 (stereo not shown) [Example 23, Benzo[b]thiophene-2-carboxylic acid [2-(6-methoxy-quinolin-4-yl)-4,5,6,7-tetrahydro-2H-indazol-5-yl]-amide]",> 128,< 0.125,2,–,> 2.2
"COc1ccc2nccc(-n3cc4c(n3)CCC(NC(=O)c3ccc5c(c3)NC(=O)CO5)C4)c2c1 (stereo not shown) [Example 116, 3-Oxo-3,4-dihydro-2H-benzo[1,4]oxazine-6-carboxylic acid [2-(6-methoxy-quinolin-4-yl)-4,5,6,7-tetrahydro-2H-indazol-5-yl]-amide]",2,0.125,4,0.532,–
"COc1ccc2nccc(-n3cc4c(n3)CCC(N(CC(=O)O)Cc3ccc5c(c3)NC(=O)CS5)C4)c2n1 (stereo not shown) [Example 68, [[2-(6-Methoxy-[1,5]naphthyridin-4-yl)-4,5,6,7-tetrahydro-2H-indazol-5-yl]-(3-oxo-3,4-dihydro-2H-benzo[1,4]thiazin-6-ylmethyl)-amino]-acetic acid]",> 128,8,8,1.88,–
"COc1ccc2nccc(-n3cc4c(n3)CCC(N(CC(=O)OC(C)(C)C)Cc3ccc5c(c3)NC(=O)CS5)C4)c2n1 (stereo not shown) [Example 67, [[2-(6-Methoxy-[1,5]naphthyridin-4-yl)-4,5,6,7-tetrahydro-2H-indazol-5-yl]-(3-oxo-3,4-dihydro-2H-benzo[1,4]thiazin-6-ylmethyl)-amino]-acetic acid tert-butyl ester]",> 128,4,64,> 13.6,–
"COc1ccc2nccc(-n3cc4c(n3)CCC(NC(=O)c3ccc(C)c([N+](=O)[O-])c3)C4)c2c1 (stereo not shown) [Example 111, N-[2-(6-Methoxy-quinolin-4-yl)-4,5,6,7-tetrahydro-2H-indazol-5-yl]-4-methyl-3-nitro-benzamide]",> 128,0.25,4,> 35,–
"COc1ccc2nccc(-n3cc4c(n3)CCC(NC(=O)/C=C/c3ccc(F)c(F)c3)C4)c2n1 (stereo not shown) [Example 93, 3-(3,4-Difluoro-phenyl)-N-[2-(6-methoxy-[1,5]naphthyridin-4-yl)-4,5,6,7-tetrahydro-2H-indazol-5-yl]-acrylamide]",> 128,0.25,16,> 34.7,–
